The values that follow come from ChEMBL document CHEMBL1201862, “PubChem BioAssay data set” (2004).

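Method: 48-hour compound exposure of cells in 96-well plates, five concentrations, linear interpolation of endpoints. At the GI50, growth is halved.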 Active and inactive are the calls of the source. No stated cut-off is given here; in the data, active = GI50 up to about 1.1 µM and inactive = higher.

What all share (test): NCI anticancer screen, dose series, 48 h
Assay [1] concerns A498.
The test system of assay [2] is EKVX.
In assay [3] the test system is HL-60.
For assay [4], the system named is HOP-92.
The subject of assay [5] is KM12.
Assay [6] deals with M14.
For assay [7], the system named is M19-MEL.
Assay [8] has as its system MOLT-4.
The subject of assay [9] is OVCAR-3.
Assay [10] deals with OVCAR-8.
For assay [11], the system named is SF-295.
Assay [12] deals with SK-MEL-5.
Assay [13] deals with SK-OV-3.
Assay [14] has as its system UACC-257.
In assay [15] the test system is UACC-62.
The subject of assay [16] is HOP-62.
The subject of assay [17] is OVCAR-4.

With `CN1C2C=C(c3ccccc3)CC1CC2` (stereo not drawn), the GI50 in assay [1], in [2], in assay [3], in assay [4], in assay [5] and in assay [6] was > 100 µM (inactive) in each case. For the same compound, the GI50 in assay [7], in [8], in assay [9], in assay [10], in [11] and in assay [12] was > 100 µM (inactive) throughout. Also, the GI50 in assay [13], in assay [14] and in assay [15] was > 100 µM (inactive) throughout.

Consider `CC(=O)c1cccc(NCn2nnc3ccccc32)c1`, for which the GI50 in [1] is > 100 µM (inactive); in [2] it was > 100 µM (inactive); in assay [3] it was 61 µM (inactive); in assay [16], > 100 µM (inactive); in assay [4] it was > 100 µM (inactive); in assay [5], > 100 µM (inactive). Also, the GI50 in assay [6], in assay [7], in assay [8], in assay [9], in assay [17] and in assay [10] was > 100 µM (inactive) each time. For the same compound, the GI50 in assay [11], in [13], in assay [14] and in assay [15] was > 100 µM (inactive) in each case.

As to `COC(=O)C1=C(O)c2cc(OC)c(OC)cc2C(c2ccc(OC)c(OC)c2)C1` (stereo not drawn), the GI50 in assay [1] is 36.3 µM (inactive); in assay [2], > 100 µM (inactive); in assay [3], > 100 µM (inactive); in assay [16], > 100 µM (inactive); in assay [4] it was > 100 µM (inactive); in assay [5], 76.9 µM (inactive). Further, the GI50 in [6] is > 100 µM (inactive); in assay [7] it was > 100 µM (inactive); in [8] it was 88.5 µM (inactive); in assay [9], > 100 µM (inactive); in assay [17], > 100 µM (inactive); in [10], 93.1 µM (inactive). Moreover, the GI50 in assay [11] was 46.9 µM (inactive); in assay [12] it was > 100 µM (inactive); in assay [13], > 100 µM (inactive); in [14] it was > 100 µM (inactive); in assay [15] it was 99.8 µM (inactive).

Turning to `CNS(=O)(=O)NN(C)S(=O)(=O)c1ccc(OC)cc1`, the GI50 in assay [1], in assay [2], in assay [3], in assay [16], in assay [5] and in assay [6] was > 100 µM (inactive) in each case. Moreover, the GI50 in assay [7], in assay [8], in assay [17], in assay [10], in assay [11] and in [12] was > 100 µM (inactive) in each case. Further, the GI50 in [14] and in assay [15] was > 100 µM (inactive) each time.

With `O=C(O)CCNS(=O)(=O)c1ccc([N+](=O)[O-])cc1`, the GI50 in [1], in [2], in assay [3], in assay [4], in [5] and in assay [6] was > 100 µM (inactive) each time. Besides, the GI50 in [7], in assay [8], in assay [9], in [17], in [10] and in [11] was > 100 µM (inactive) in each case. The GI50 in assay [12], in assay [13], in [14] and in assay [15] was > 100 µM (inactive) each time.

Regarding `O=C(c1ccccc1)N1CCc2c([nH]c3ccccc23)C1`, the GI50 is 44.6 µM (inactive) in assay [2]; 15.7 µM (inactive) in [3]; 91.2 µM (inactive) in assay [16]; 48.6 µM (inactive) in [4]; 48.8 µM (inactive) in [5]; 34 µM (inactive) in assay [6]. Moreover, the GI50 in assay [7] was 36.8 µM (inactive); in assay [8] it was 24.5 µM (inactive); in [9] it was 38 µM (inactive); in [17], 53 µM (inactive); in [10] it was 29.5 µM (inactive); in assay [11], 36.6 µM (inactive). Besides, the GI50 in assay [12] was 20.9 µM (inactive); in assay [13] it was 85.3 µM (inactive); in assay [14], 28.7 µM (inactive); in assay [15], 51.4 µM (inactive).

With `C=C(CN(C)C)C(=O)c1ccc(C(=O)C(=C)CN(C)C)cc1`, the GI50 in assay [1], in assay [2], in assay [3], in assay [4], in [5] and in assay [6] was > 100 µM (inactive) each time. The GI50 in assay [7], in assay [8], in [9], in assay [17], in [10] and in assay [11] was > 100 µM (inactive) throughout. The GI50 in [12], in assay [13], in assay [14] and in assay [15] was > 100 µM (inactive) throughout.

As to `Cn1cnc([N+](=O)[O-])c1SC1=NCCS1`, the GI50 is > 100 µM (inactive) in assay [1]; > 100 µM (inactive) in assay [2]; > 100 µM (inactive) in assay [16]; 37.4 µM (inactive) in assay [4]; > 100 µM (inactive) in assay [5]; 48 µM (inactive) in assay [6]. Also, the GI50 in assay [7] is 49.4 µM (inactive); in assay [8], 25.6 µM (inactive); in assay [9] it was > 100 µM (inactive); in assay [17], 89.9 µM (inactive); in assay [10], > 100 µM (inactive); in assay [11], > 100 µM (inactive). Also, the GI50 in assay [12] is > 100 µM (inactive); in assay [13], > 100 µM (inactive); in [14], 72.8 µM (inactive); in assay [15], 51.2 µM (inactive).

Consider `C[C@@]12CCCC(=O)N1[C@@H](CO)C(c1ccccc1)O2` (stereo partly drawn), for which the GI50 in [1], in assay [2], in assay [16], in assay [4], in [5] and in assay [7] was > 100 µM (inactive) in each case. Also, the GI50 in assay [9], in [17], in [10], in [11], in assay [12] and in [14] was > 100 µM (inactive) throughout. In addition, in [15], the GI50 is > 100 µM (inactive).

`CCO/C=C1\N=C(C(Cl)c2ccccc2)OC1=O` (stereo not drawn): the GI50 in assay [1], in [2], in assay [3], in [16], in assay [4] and in assay [5] was > 100 µM (inactive) throughout. For the same compound, the GI50 in assay [6], in [7], in assay [8], in assay [9], in assay [17] and in [10] was > 100 µM (inactive) in each case. In addition, the GI50 in assay [11], in assay [12], in [14] and in [15] was > 100 µM (inactive) in each case.

On to `O=C(O)CSc1nnc(Cc2ccccc2)[nH]1`, for which the GI50 in assay [2], in [3], in [16], in assay [4], in assay [5] and in assay [6] was > 100 µM (inactive) in each case. Moreover, the GI50 in assay [7], in assay [8], in assay [9], in assay [17], in assay [10] and in assay [11] was > 100 µM (inactive) throughout. Besides, the GI50 in assay [12], in assay [13], in [14] and in [15] was > 100 µM (inactive) each time.

Regarding `Cc1ccc(-c2nnc(-c3nn(-c4ccccc4)c4nc5ccccc5nc34)o2)cc1`, the GI50 is 29.9 µM (inactive) in assay [2]; 11 µM (inactive) in assay [3]; 13.5 µM (inactive) in assay [16]; 7.52 µM (inactive) in assay [4]; 17.8 µM (inactive) in assay [5]; 25.8 µM (inactive) in [6]. The GI50 in assay [7] was 22.1 µM (inactive); in [8], 16 µM (inactive); in [9], 14.1 µM (inactive); in assay [17], 3.01 µM (inactive); in assay [10], 10.9 µM (inactive); in assay [11] it was 15.6 µM (inactive). For the same compound, the GI50 in assay [12] is 10.9 µM (inactive); in assay [13], 10.8 µM (inactive); in [14], 35.9 µM (inactive); in assay [15], 14.2 µM (inactive).

For the compound `Nc1ccc(C(=O)NN2C(=O)C(Cl)C2c2ccccc2Cl)cc1` (stereo not drawn), the GI50 was 17.5 µM (inactive) in [2]; 1.02 µM (active) in [3]; 20.3 µM (inactive) in [16]; 4.48 µM (inactive) in assay [4]; 12.1 µM (inactive) in assay [5]; 13.1 µM (inactive) in assay [6]. For the same compound, the GI50 in assay [7] was 7.94 µM (inactive); in [8] it was 1.59 µM (inactive); in assay [9], 13.8 µM (inactive); in assay [17] it was 13.8 µM (inactive); in assay [10] it was 3.24 µM (inactive); in assay [11], 2.95 µM (inactive). The GI50 is 16 µM (inactive) in assay [12], 16.1 µM (inactive) in assay [13], 13.6 µM (inactive) in [14] and 8.69 µM (inactive) in assay [15].
